The source of these data is US7485640B2, “Imidazopyrazinones as GABA-A receptor anxiolytics” (Merck Sharp & Dohme Limited, priority 2002, dated 2009).

Molecules are shown by their SMILES.

On to `CN1CCn2c(-c3ccc(F)c(-c4ccc(F)cc4C#N)c3)cnc2C1=O` [Example 22, 4,2′-Difluoro-5′-(7-methyl-8-oxo-5,6,7,8-tetrahydroimidazo[1,2-a]pyrazin-3-yl)biphenyl-2-carbonitrile], for which the melting point was found to be 224 °C.

A word on the melting point: it is the temperature of the solid-liquid transition.
